Results reported in patent publication EP0163240A2, “Dihydroimidazo[1,2-a]pyrimidine derivatives, methods of preparing said compounds and pharmaceutical compositions constaining said compounds” (priority 1984, dated 1985).
Structures can show the parent of a compound that is named as a salt. Where two headings read alike, the source gives them in different places.

Legend:
[1] = tested on: coronary blood flow; test: Effect on coronary blood flow; assay type: in vivo, Adult mongrel dogs; conditions: for ED50: dose required to increase the coronary blood flow by a half of the effects of nifedipine, injected into the coronary artery, anesthetized dogs; for T 1/2: half-life measured as the duration of effects on coronary blood flow
Protocol: Pharmacological experiment 2: Effect on coronary blood flow Adult mongrel dogs were anesthetized with sodium pentobarbital (30 mg/kg, i.v.). According to the method of Yago et al described in Folia Pharmacol. Japon, vol. 57, 380 (1961), the left coronary artery was perfused and its blood flow was measured. […] The half-life (T 1/2, minute) was measured as the duration of effects.

[2] = tested on: liver mitochondria; test: Effect on lipid peroxidation (malondialdehyde formation in liver mitochondria, thiobarbituric acid method); assay type: biochemical, Male Sprague-Dawley rats; conditions: 50% inhibitory concentration on the formation of malondialdehyde; ascorbic acid, ferrous sulfate; 25°C for 30 minutes
Protocol: Pharmacological experiment 4: Effect on lipid peroxidation
Male Sprague-Dawley rats weighing 300-350 g were used. According to the method of Shimada et al described in Biochim. Biophys. Acta, vol. 572, 531 (1979), the liver mitochondria were isolated and ascorbic acid, ferrous sulfate, potassium chloride and Tris-HC1 buffer were added. To the solution was added test compound dissolved in dimethyl sulfoxide, and the mixture was incubated at 25°C for 30 minutes. The amount of malondialdehyde was determined by the thiobarbituric acid method and the 50% inhibitory concentration (IC50, µmol) of test compound on the formation of malondialdehyde was measured.

[3] = tested on: vertebral blood flow; test: Effect on vertebral blood flow; assay type: in vivo, Adult mongrel dogs; conditions: for ED100: dose required to obtain 100% of the increase of blood flow by 100 µg of papaverine hydrochloride, injected in the vertebral artery, anesthetized dogs; for T 1/2: half-life measured as the duration of effects on vertebral blood flow
Protocol: Pharmacological experiment 3: Effect on vertebral blood flow Adult mongrel dogs were anesthetized with sodium pentobarbital (25 mg/kg, i.v.). The right vertebral artery was perfused and the blood flow was measured. Test compound was injected in the vertebral artery. […] Half-life (T 1/2, minute) was measured as the duration of effects.

[4] = tested on: Trachea of guinea pig; test: Anticholinergic activity (ACh-contracted tracheal strip chain preparation); conditions: for IC50: Cavia porcellus, read-out: 50% inhibitory concentration (IC50) on ACh-induced contraction
Protocol: Each of 30 mg/kg of test compounds A and Q was orally administered to five male spontaneously hypertensive rats and the blood pressure was measured by the tail cuff method. The blood pressure lowering value after 1 hour administration of test compound A was 48 mmHg and that value after 5 hours administration of test compound Q was 64 mmHg. Pharmacological experiment 6: Anticholinergic activity
Trachea of guinea pig, weighing 380-550 g, was isolated and prepared its strip chain preparation. The preparation was mounted in organ bath filled with Krebs-Henseleit solution gassed with 95% 02 and 5% CO2. Length of the preparation was measured by isometric transducer (MEC, ME-4012). The preparation was contracted by 10^-6 M of acetylcholine (ACh) and then, test compounds were added cumulatively into the bath to observe relaxant effect.
(§1) Pharmacological experiment 7: Toxicity

[5] = tested on: ddY strain mice; assay type: in vivo
From the text: as §1
Test compounds A, B, C, E and S were orally administered to five ddY strain mice.

[6] = preparation contracted by 10^-6 M of acetylcholine (ACh), cumulative addition
[7] = oral dose of 1000 mg/kg, five mice

SMILES | ED50 [1] | T 1/2 [1] | IC50 [2] | ED100 [3] | T 1/2 [3] | other results
CCOCc1cnc2n1C(c1cccc([N+](=O)[O-])c1)C(C(=O)OCC)=C(C)N2 (centres unmarked) [Compound G, Ethyl 3-ethoxymethyl-7-methyl-5-(3-nitrophenyl)-5,8-dihydroimidazo[1,2-a]pyrimidine-6-carboxylate] | 7 µg | 1.0 min | 10000 nM |  |  | 
CCOC(=O)C1=C(C)Nc2ncc(CNCc3ccccc3)n2C1c1cccc([N+](=O)[O-])c1.Cl.Cl (centres unmarked) [Compound N, Ethyl 3-benzylaminomethyl-7-methyl-5-(3-nitrophenyl)-5,8-dihydroimidazo[1,2-a]pyrimidine-6-carboxylate dihydrochloride] |  |  |  | 10 µg | 0.7 min | 
COC(=O)C1=C(C)Nc2ncc(CN3CCCC3)n2C1c1cccc([N+](=O)[O-])c1 (centres unmarked) [Compound P, Methyl 7-methyl-5-(3-nitrophenyl)-3-(1-pyrrolidinylmethyl)-5,8-dihydroimidazo[1,2-a] pyrimidine-6-carboxylate dihydrochloride] |  |  |  | 6 µg | 0.6 min | IC50 [4, 6]: 2300 nM
CCCCNCc1cnc2n1C(c1cccc([N+](=O)[O-])c1)C(C(=O)OCC)=C(C)N2.Cl.Cl (centres unmarked) [Compound O, Ethyl 3-butylaminomethyl-7-methyl-5-(3-nitrophenyl)-5,8-dihydroimidazo[1,2-a]pyrimidine-6-carboxylate dihydrochloride] |  |  |  | 15 µg | 0.7 min | 
CCOC(=O)C1=C(C)Nc2ncc(N3CCCC3)n2C1c1cccc([N+](=O)[O-])c1 (stereo not drawn) [Compound D, Ethyl 7-methyl-5-(3-nitrophenyl)-3-(l-pyrrolidinyl)-5,8-dihydroimidazo[1,2-a]pyrimidine-6-carboxylate] | 8 µg | 1.3 min | 200 nM |  |  | 
COC(=O)C1=C(C)Nc2ncc(CN(C(C)C)C(C)C)n2C1c1cccc([N+](=O)[O-])c1 (centres unmarked) [Compound K, Methyl 3-diisopropylaminomethyl-7-methyl-5-(3-nitrophenyl)-5,8-dihydroimidazo[1,2-a]pyrimidine-6-carboxylate] | 6 µg | 1.5 min |  |  |  | 
CN1[C@@H]2CC[C@H]1C[C@@H](OC(=O)C(CO)c1ccccc1)C2 (some centres unmarked) [atropine, reference compound] |  |  |  |  |  | IC50 [4]: 0.74 nM
CCOC(=O)C1=C(C)Nc2ncc(CN(C)Cc3ccccc3)n2C1c1cccc([N+](=O)[O-])c1.Cl.Cl.O (centres unmarked) [Compound C, Ethyl 3-(N-benzyl-N-methylamino)methyl-7-methyl-5-(3-nitrophenyl)-5,8-dihydroimidazo[1,2-a] pyrimidine-6-carboxylate dihydrochloride monohydrate] | 10 µg | 1.5 min |  | 5 µg | 1.5 min | survival ([5]; mouse, in vivo, po, 1000 mg/kg): All mice were survived
CCN(CC)Cc1cnc2n1C(c1ccccc1C(F)(F)F)C(C(=O)OC)=C(C)N2 (centres unmarked) [Compound E, Methyl 3-diethylaminomethyl-7-methyl-5-(2-trifluoromethylphenyl)-5,8-dihydroimidazo[1,2-a] pyrimidine-6-carboxylate] | 5 µg | 1.0 min | 15000 nM |  |  | survival [5, 7]: All mice were survived
CCN(CC)Cc1cnc2n1C(c1cccc([N+](=O)[O-])c1)C(C(=O)OCCOC)=C(C)N2 (centres unmarked) [Compound J, 2-Methoxyethyl 3-diethylaminomethyl-7-methyl-5-(3-nitrophenyl)-5,8-dihydroimidazo[1,2-a]pyrimidine-6-carboxylate] | 5 µg | 1.7 min |  |  |  | 
CCOC(=O)C1=C(C)Nc2ncc([N+](=O)[O-])n2C1c1ccccc1C(F)(F)F (centres unmarked) [Compound M, Ethyl 7-methyl-3-nitro-5-(2-trifluoromethylphenyl)-5,8-dihydroimidazo[1,2-a]pyrimidine-6-carboxylate] | 5 µg | 1.0 min |  |  |  | 
CCOC(=O)C1=C(C)Nc2ncc(CN(CC)CC)n2C1c1cccc([N+](=O)[O-])c1 (centres unmarked) [Compound B, Ethyl 3-diethylaminomethyl-7-methyl-5-(3-nitrophenyl)-5,8-dihydroimidazo[l,2-a]pyrimidine-6-carboxylate hydrochloride] | 3 µg | 1.5 min | 20000 nM | 10 µg | 0.8 min | survival ([5]; mouse, in vivo, po, 1000 mg/kg): All mice were survived; relaxant effect on ACh-contracted preparation ([4]; 10^-7-10^-5M): relaxed ACh-contracted preparation in a concentration-dependent manner; IC50 [4, 6]: 4000 nM
COC(=O)C1=C(C)Nc2ncc(CNc3ccccc3C(F)(F)F)n2C1c1cccc([N+](=O)[O-])c1 (centres unmarked) [Compound S, Methyl 7-methyl-5-(3-nitrophenyl)-3-(2-trifluoromethylphenyl)aminomethyl-5,8-dihydroimidazo[1,2-a]pyrimidine-6-carboxylate] |  |  |  |  |  | survival [5, 7]: All mice were survived
CCOC(=O)C1=C(C)Nc2ncc(N(CC)CC)n2C1c1cccc([N+](=O)[O-])c1 (centres unmarked) [Compound F, Ethyl 3-diethylamino-7-methyl-5-(3-nitrophenyl)-5,8-dihydroimidazo[1,2-a]pyrimidine-6-carboxylate] | 12 µg | 1.0 min | 2000 nM |  |  | 
CCOC(=O)C1=C(C)Nc2ncc(N(C)Cc3ccccc3)n2C1c1cccc([N+](=O)[O-])c1 (centres unmarked) [Compound R, Ethyl 7-methyl-5-(3-nitrophenyl)-3-(N-benzyl-N-methyl)amino-5,8-dihydroimidazo[1,2-a]pyrimidine-6-carboxylate] |  |  | 700 nM |  |  | 
COC(=O)C1=C(C)Nc2ncc(COC(C)C)n2C1c1cccc([N+](=O)[O-])c1 (centres unmarked) [Compound L, Methyl 3-isopropoxymethyl-7-methyl-5-(3-nitrophenyl)-5,8-dihydroimidazo[1,2-a]pyrimidine-6-carboxylate] | 5 µg | 1.0 min |  |  |  | 
CCOC(=O)C1=C(C)Nc2ncc(CN(CC)CC)n2C1c1ccccc1[N+](=O)[O-].Cl.Cl.O (centres unmarked) [Compound I, Ethyl 3-diethylaminomethyl-7-methyl-5-(2-nitrophenyl)-5,8-dihydroimidazo[1,2-a]pyrimidine-6-carboxylate dihydrochloride monohydrate] | 10 µg | 2.0 min |  |  |  | 
CCCN(CCC)Cc1cnc2n1C(c1cccc([N+](=O)[O-])c1)C(C(=O)OC)=C(C)N2 (centres unmarked) [Compound H, Methyl 3-dipropylaminomethyl-7-methyl-5-(3-nitrophenyl)-5,8-dihydroimidazo[1,2-a]pyrimidine-6-carboxylate] | 7 µg | 1.0 min |  | 2 µg | 1.0 min | 
